Entries after “also recorded” stand apart in the source; their conditions may differ. Structures can show the parent of a compound that is named as a salt. Where two headings read alike, the source gives them in different places.
Tests used:
DEN2V NS2B-NS3pro [1] = target: T1, DEN2V NS2B-NS3pro (Dengue virus type 2, UniProt Q91H74); experiment: Steady-state kinetics of inhibitors of DEN2V NS2B-NS3pro (Boc-GRR-AMC substrate, Dynafit); assay type: biochemical, Dengue 2 virus
WNV NS2B-NS3pro = WNV NS2B-NS3pro (West Nile virus, UniProt P06935); experiment: Steady-state kinetics of inhibitors of WNV NS2B-NS3pro; assay type: biochemical; settings: for Mechanism: Table 2, WNV NS2B-NS3pro
DENV; WNV protease = assay type: biochemical, Dengue virus; West Nile virus
cells = settings: Yip et al., 2006; cited from earlier work
[2] = target: T2, Bovine pancreatic trypsin (Bos taurus, UniProt P00760); experiment: biochemical; assay type: biochemical
T2 construct: purchased Sigma Aldrich; host or cells: bovine pancreas
T2 sequence (P00760 24-246): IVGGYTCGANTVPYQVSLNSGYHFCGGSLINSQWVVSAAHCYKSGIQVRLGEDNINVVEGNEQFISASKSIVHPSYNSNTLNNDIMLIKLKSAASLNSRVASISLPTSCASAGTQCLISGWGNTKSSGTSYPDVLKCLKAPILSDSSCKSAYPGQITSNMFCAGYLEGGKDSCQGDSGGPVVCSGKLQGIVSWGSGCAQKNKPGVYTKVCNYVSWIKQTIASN

DEN2V NS2B-NS3pro [3] = target: T1, DEN2V NS2B-NS3pro; experiment: Preliminary DEN2V NS2B-NS3pro inhibition assay; assay type: biochemical, Dengue 2 virus; settings: 100 nM protease, 100 μM Boc-GRR-AMC, 30 min at 25° C.; aprotinin at 100 μM
physchem = settings: pH 9, aqueous with cosolvent or surfactant or cyclodextrin, kinetic from dmso stock
[4] = target: T2, Bovine pancreatic trypsin; experiment: Trypsin inhibition assay with chromogenic BAPNA substrate; assay type: biochemical; settings: analog at 100 μM
Method: Bovine pancreatic trypsin (Sigma Aldrich, St. Louis) and N-α-Benzoyl-DL-arginine 4-nitroanilide hydrochloride (BAPNA) substrate (Sigma Aldrich, St. Louis) were used for trypsin inhibition assays. Trypsin stock solutions were prepared in sodium phosphate buffer (67 mM [pH 7.6]). Trypsin (60 μM) was incubated with chromogenic BAPNA (500 μM) and release of the para-nitroanilide product monitored using a DU640 spectrophotometer (Beckman Coulter, USA) to measure absorption at 415 nm. The slope of the progress curve was determined using linear regression and used as a baseline for comparison with inhibitor reactions.

[5] = pH 9
[6] = Table 1, DEN2V NS2B-NS3pro, HTS-identified hits
[7] = Ki1 (from biochemical protease inihibition experiments) West Nile virus NS2B-NS

T1 sequence (Q91H74 entry or part of it, added parts left off): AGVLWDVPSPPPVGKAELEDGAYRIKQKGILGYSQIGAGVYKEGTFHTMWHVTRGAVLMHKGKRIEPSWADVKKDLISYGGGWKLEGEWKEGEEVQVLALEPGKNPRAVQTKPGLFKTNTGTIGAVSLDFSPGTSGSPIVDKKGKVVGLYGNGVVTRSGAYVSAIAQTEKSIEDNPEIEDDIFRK
T1 sequence (Q91H74 entry or part of it partner, added parts left off): as the sequence (Q91H74 entry or part of it, added parts left off) above
Sequence of WNV NS2B-NS3pro (P06935 1502-1679 limits assumed): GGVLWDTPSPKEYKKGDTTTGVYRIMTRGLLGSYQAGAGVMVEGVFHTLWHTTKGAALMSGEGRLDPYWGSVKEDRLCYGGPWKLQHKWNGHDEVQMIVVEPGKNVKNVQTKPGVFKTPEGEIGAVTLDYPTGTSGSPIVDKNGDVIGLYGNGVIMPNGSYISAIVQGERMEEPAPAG
Sequence of WNV NS2B-NS3pro (P06935 1424-1463 partner limits assumed): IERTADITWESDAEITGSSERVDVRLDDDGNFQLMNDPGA

Molecule: O=C(Nc1ccc(O)c2ccccc12)c1ccc([N+](=O)[O-])cc1[N+](=O)[O-] [Compound 273]
- Ki (DEN2V NS2B-NS3pro [1]; Denpro Ki1): < 223 µM
- Ki (WNV NS2B-NS3pro; WNpro Ki1): < 169 µM
- Ki (WNV NS2B-NS3pro; WNpro Ki2): < 186 µM
- Protease inhibited in Knock-down (DENV; WNV protease): DENV; WNV

Molecule: Oc1ccc2cc(/N=N/c3ccc4c(c3)OCO4)c(O)cc2c1 [Compound 292]
- Protease inhibited in Knock-down (DENV; WNV protease): WNV

Molecule: CCCCC(CC)CNC(=N)NC(=N)NCCCCCCNC(=N)NC(=N)NCC(CC)CCCC (stereo not drawn) [MS28, Alexidine hydrochloride, reference compound]
- Ki (DEN2V NS2B-NS3pro [1]; Ki1, Table 1, DEN2V NS2B-NS3pro): 41 ± 3 µM
- Ki (DEN2V NS2B-NS3pro [1]; Ki2, Table 1, DEN2V NS2B-NS3pro): 84 ± 16 µM
- Mechanism (DEN2V NS2B-NS3pro [1]; [6]): Mixed
- Ki (WNV NS2B-NS3pro; Ki1, Table 2, WNV NS2B-NS3pro): 12 µM
- Ki (WNV NS2B-NS3pro; Ki2, Table 2, WNV NS2B-NS3pro): 28 ± 5 µM
- Mechanism (WNV NS2B-NS3pro): Mixed
- ED50 (cell viability reduced by 50%) (cells): low micromolar

Molecule: Nc1ccc(N)c2c1C(=O)c1c(N)ccc(N)c1C2=O [Compound 6A42]
- Mechanism (trypsin inhibition) [2]: mixed noncompetitive trypsin inhibitors; also recorded: inhibited both the DEN2V NS2B-NS3 protease and trypsin
- Ki ([2]; Ki1 trypsin): 60 ± 13 µM
- Ki ([2]; Ki2 trypsin): 167 ± 20 µM
- Inhibition of DEN2V NS2B-NS3pro in the preliminary inhibition assay (DEN2V NS2B-NS3pro [3]): significant inhibition

Molecule: O=[N+]([O-])c1ccc(N=Nc2ccc(O)c3ccccc23)c([N+](=O)[O-])c1 [Compound 6A49]
- Ki (WNV NS2B-NS3pro; [7]): 34 µM
- Ki (WNV NS2B-NS3pro; WNpro Ki1): 34 µM
- Mechanism (trypsin inhibition) [2]: did not inhibit trypsin; also recorded: No inhibition
- Inhibition of DEN2V NS2B-NS3pro in the preliminary inhibition assay (DEN2V NS2B-NS3pro [3]): significant inhibition
- Protease inhibited in Knock-down (DENV; WNV protease): DENV; WNV
- solubility (physchem): > 10 µM

Molecule: O=[N+]([O-])c1ccc(/C=N/c2ccc(O)c3ccccc23)c([N+](=O)[O-])c1 [Compound 260]
- Ki (DEN2V NS2B-NS3pro [1]; Denpro Ki1): 52 µM
- Ki (DEN2V NS2B-NS3pro [1]; Denpro Ki2): 5 µM
- Ki (WNV NS2B-NS3pro; WNpro Ki1): 14 µM
- Ki (WNV NS2B-NS3pro; WNpro Ki2): 5 µM
- Protease inhibited in Knock-down (DENV; WNV protease): DENV; WNV

Molecule: aprotinin [reference compound]
- Inhibition of DEN2V NS2B-NS3pro in the preliminary inhibition assay (DEN2V NS2B-NS3pro [3]): fluorescence levels that were similar to that of the “substrate alone” background control

Molecule: O=C1c2c(O)ccc([N+](=O)[O-])c2C(=O)c2c([N+](=O)[O-])ccc(O)c21 [ARDP0006, reference compound]
- Ki (DEN2V NS2B-NS3pro [1]; Ki1, Table 4, ARDP0006 analogs, DEN2V NS2B-NS3pro): 432 ± 46 µM
- Mechanism (DEN2V NS2B-NS3pro [1]; Table 4, ARDP0006 analogs, DEN2V NS2B-NS3pro): competitive inhibition model
- Mechanism (trypsin inhibition) [2]: uncompetitive trypsin inhibitor
- Ki ([2]; Ki2 trypsin): 13 µM
- Inhibition of trypsin cleavage of the chromogenic substrate [4]: not the chromogenic substrate
- solubility (physchem): > 10 µM

Molecule: CC(=O)Oc1cc2c(cc1OC(C)=O)[C@@H]1c3ccc(OC(C)=O)c(OC(C)=O)c3OC[C@]1(OC(C)=O)C2 [MS5, Haematoxylin pentaacetate]
- Mechanism (DEN2V NS2B-NS3pro [1]; [6]): Mixed
- Ki (DEN2V NS2B-NS3pro [1]; Table 1, DEN2V NS2B-NS3pro, read-out: Ki1): 16 ± 7 µM
- Ki (DEN2V NS2B-NS3pro [1]; Table 1, DEN2V NS2B-NS3pro, read-out: Ki2): 5 ± 0.7 µM
- Mechanism (WNV NS2B-NS3pro): Mixed
- Inhibition in single-point knock-down assays with either protease (DENV; WNV protease; compound incubated with cleavage buffer overnight (complete oxidation)): no observable inhibition

Molecule: O=P(=O)c1ccc(OC2OCC(O)C(O)C2O)cc1 (stereo not drawn) [Compound 6A31]
- solubility [5]: NS (key: compounds soluble in aqueous buffer were indicated with “S”; insoluble compounds indicated with “NS.”)

Molecule: COc1cc(O)c2c(=O)c3c(O)ccc(OCl)c3oc2c1 [Compound 6A63]
- Solubility in the kinetic reaction buffer [5]: not soluble
- solubility (physchem): < 10 µM

Molecule: O=[N+]([O-])c1cc(/N=N/c2ccc3cc(O)c(O)cc3c2)ccc1O [Compound 293]
- Ki (DEN2V NS2B-NS3pro [1]; Denpro Ki1): 432 µM
- Ki (DEN2V NS2B-NS3pro [1]; Denpro Ki2): 29 µM
- Ki (WNV NS2B-NS3pro; WNpro Ki2): 20 µM
- Protease inhibited in Knock-down (DENV; WNV protease): DENV

Molecule: O=[N+]([O-])c1cc(/N=N/c2ccc(O)c3cc(O)ccc23)ccc1O [Compound 297]
- Ki (DEN2V NS2B-NS3pro [1]; Denpro Ki2): 85 µM
- Ki (WNV NS2B-NS3pro; WNpro Ki2): 61 µM
- Protease inhibited in Knock-down (DENV; WNV protease): DENV; WNV

Molecule: Oc1cc2ccc(/N=N/c3ccc4c(c3)OCO4)cc2cc1O [Compound 290]
- Ki (DEN2V NS2B-NS3pro [1]; Denpro Ki2): < 8.5 µM
- Ki (WNV NS2B-NS3pro; WNpro Ki2): < 6 µM
- Protease inhibited in Knock-down (DENV; WNV protease): DENV; WNV

Molecule: O=[N+]([O-])c1ccc(/N=N/c2ccc(O)c3cc(O)ccc23)c([N+](=O)[O-])c1 [Compound 298]
- Ki (DEN2V NS2B-NS3pro [1]; Denpro Ki1): 40 µM
- Ki (DEN2V NS2B-NS3pro [1]; Denpro Ki2): 4 µM
- Ki (WNV NS2B-NS3pro; WNpro Ki1): 4 µM
- Ki (WNV NS2B-NS3pro; WNpro Ki2): 2 µM
- Protease inhibited in Knock-down (DENV; WNV protease): DENV; WNV

Molecule: Cc1ccc(O)c(/N=N/c2c(O)cc(O)c3ccccc23)c1 [Compound 301]
- Protease inhibited in Knock-down (DENV; WNV protease): DENV; WNV

Molecule: O=[N+]([O-])c1ccc(/N=N/c2ccc3cc(O)c(O)cc3c2)c(O)c1 [Compound 300]
- Ki (DEN2V NS2B-NS3pro [1]; Denpro Ki1): 81 µM
- Ki (DEN2V NS2B-NS3pro [1]; Denpro Ki2): 5 µM
- Ki (WNV NS2B-NS3pro; WNpro Ki1): 3 µM
- Ki (WNV NS2B-NS3pro; WNpro Ki2): 2 µM
- Protease inhibited in Knock-down (DENV; WNV protease): DENV; WNV

Molecule: Oc1ccc2c(/N=N/c3ccc4c(c3)OCO4)ccc(O)c2c1 [Compound 296]
- Ki (DEN2V NS2B-NS3pro [1]; Denpro Ki1): 215 µM
- Ki (DEN2V NS2B-NS3pro [1]; Denpro Ki2): 62 µM
- Ki (WNV NS2B-NS3pro; WNpro Ki2): 116 µM
- Protease inhibited in Knock-down (DENV; WNV protease): DENV; WNV

Molecule: O=C1c2c(O)cccc2Cc2cccc(O)c21 [Compound 6A45]
- Ki (WNV NS2B-NS3pro; [7]): 2 µM
- Mechanism (trypsin inhibition) [2]: competitive trypsin inhibitors; also recorded: inhibited both the DEN2V NS2B-NS3 protease and trypsin
- Ki ([2]; Ki1 trypsin): 0.6 ± 0.07 µM
- Inhibition of DEN2V NS2B-NS3pro in the preliminary inhibition assay (DEN2V NS2B-NS3pro [3]): significant inhibition
- solubility (physchem): > 10 µM

Molecule: O=C1c2ccc(O)cc2C(=O)c2c1ccc(O)c2O [Compound 6A47]
- Mechanism (trypsin inhibition) [2]: mixed noncompetitive trypsin inhibitors; also recorded: inhibited both the DEN2V NS2B-NS3 protease and trypsin
- Ki ([2]; Ki1 trypsin): 4 µM
- Ki ([2]; read-out: Ki2 trypsin): 25 ± 3 µM
- Inhibition of DEN2V NS2B-NS3pro in the preliminary inhibition assay (DEN2V NS2B-NS3pro [3]): significant inhibition
- solubility (physchem): > 10 µM

Molecule: O=[N+]([O-])c1ccc(/N=N/c2c(O)cc(O)c3ccccc23)c(O)c1 [Compound 302]
- Protease inhibited in Knock-down (DENV; WNV protease): DENV; WNV

— patent publication US8778876B2, “Small-molecule inhibitors of Dengue and West Nile virus proteases” (The Board of Regents of the University of Texas System, priority 2011, dated 2014)
